Reference: patent publication US20050265923A1, “Embolus therapy using insoluble microparticles or vesicles containing contrast agents” (priority 1997, published 2005)

In the case of `CCOC(=O)COC(=O)c1c(I)c(NC(C)=O)c(I)c(NC(C)=O)c1I` [NC 12901, Ethyl (3,5-diacetamido-2,4,6-triiodobenzoyloxy)acetate], the melting point is reported as 269.5 to 270.5 °C (dec.).
In the case of `CCOC(=O)c1c(I)c(NC(C)=O)c(I)c(NC(C)=O)c1I` [NC 8883, Ethyl 3,5-diacetamido-2,4,6-triiodobenzoate], the melting point is reported as 280 to 290 °C (dec.).
